Measured values taken from paper PMC2698131 (Journal of biomolecular screening, 2009).
Where two headings read alike, the source gives them in different places.

What was measured:
[1] = target: T1, LARG-stimulated RhoA nucleotide binding (Homo sapiens, UniProt Q9NZN5); assay type: biochemical; details: 20 minutes; for Hill Slope [TR-GTPγS]: BODIPY-TR-GTPγS fluorescence polarization dose-response; for IC50: BODIPY-TR-GTPγS 500 nM, LARG 100 nM, RhoA (C189S) 2 μM
T1 sequence (Q9NZN5 765-1138): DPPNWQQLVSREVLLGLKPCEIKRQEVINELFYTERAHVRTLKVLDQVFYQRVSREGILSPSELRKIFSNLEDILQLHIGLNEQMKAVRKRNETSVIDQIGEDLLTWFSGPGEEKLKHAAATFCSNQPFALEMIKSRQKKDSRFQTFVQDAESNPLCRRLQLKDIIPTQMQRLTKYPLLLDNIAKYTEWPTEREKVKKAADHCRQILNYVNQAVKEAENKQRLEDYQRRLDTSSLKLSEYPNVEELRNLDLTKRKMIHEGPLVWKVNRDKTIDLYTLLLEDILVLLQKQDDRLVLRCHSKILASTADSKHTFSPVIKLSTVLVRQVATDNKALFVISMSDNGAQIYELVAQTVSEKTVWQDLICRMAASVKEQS

[2] = target: T2, LARG-stimulated RhoA [35S] GTPγS binding (Homo sapiens, UniProt Q9NZN5); test: LARG-stimulated RhoA [35S] GTPγS guanine nucleotide binding assay; assay type: biochemical; details: LARG 2 nM, RhoA (C189S) 500 nM, 25 minute time point
T2 sequence (Q9NZN5 765-1138): T1 sequence (Q9NZN5 765-1138)

| SMILES | Hill Slope [TR-GTPγS] [1] | IC50 ([1]; read-out: IC50 (μM) [TR-GTPγS]) | Hill Slope [GTPγS35] [2] | IC50 ([2]; read-out: IC50 (μM) [GTPγS35]) | IC50 ([1]; IC50 (μM) [TR-GTPγS]) | IC50 ([2]; IC50 (μM) [GTPγS35]) |
| --- | --- | --- | --- | --- | --- | --- |
| O=c1oc2cc(O)ccc2cc1-c1csc(-c2ccc(-c3ccccc3)cc2)n1 [CCG-7167] | -1.8 | 65.1 µM | -2.2 | 4.2 µM |  |  |
| Cc1cccc(NCC(=O)N/N=C\c2c(Br)cc(Br)c(O)c2Br)c1 [CCG-14113, (N′Z)-2-[(3-methylphenyl)amino]-N′-[(2,4,6-tribromo-3-hydroxyphenyl)methylidene]acetohydrazide] | -1.0 |  | -7.1 |  | 32.2 µM | 32.8 µM |
| N=C1S/C(=C\c2ccc(-c3ccccc3[N+](=O)[O-])o2)C(=O)N1c1ccc2c(c1)OCO2 [CCG-13528, (5Z)-3-(2H-1,3-benzodioxol-5-yl)-2-imino-5-{[5-(2-nitrophenyl)furan-2-yl]methylidene}-1,3-thiazolidin-4-one] | -3.4 |  | -1.8 |  | 39.8 µM | 4.6 µM |
| Nc1ccc(O)c(-c2nc3cc(N)ccc3s2)c1 [CCG-5849, 4-amino-2-(5-amino-1,3-benzothiazol-2-yl)phenol] | -1.6 |  |  |  | 10.7 µM |  |
| O=C1NC(=S)NC(=O)C1=Cc1ccc(-c2ccc(S(=O)(=O)Nc3nccs3)cc2)o1 [CCG-14631, 4-{5-[(4,6-dioxo-2-sulfanylidene-1,3-diazinan-5-ylidene)methyl]furan-2-yl}-N-(1,3-thiazol-2-yl)benzene-1-sulfonamide] | -0.7 |  | -1.1 |  | 3.1 µM | 7 µM |
